The subject of series [1] is HBV. Put plainly: HepAD38 antiviral screen: reduction of viral product accumulation (virion DNA by qPCR; HBsAg/HBeAg ELISA). In kind it is cell-based. Conditions: Hepatitis B virus; for pEC50: 120 h, HepAD38 cells, harvest five days after compound addition, reduction of viral product accumulation relative to no drug controls, read-out: HepAD38 EC50. On the procedure: (§1) Methods: HepAD38 cells are maintained as previously reported (Ladner et al, Antimicrob. Agents Chemother. 1997, […], 1715). Briefly, cells are passaged upon attaining confluency in DMEM/F12 media in the presence of 10% FBS, Penn/Strep, 250 μg/mL G418, and 1 μg/ml tetracycline. Novel compounds are screened by first washing cells three times with PBS to remove tetracycline, and plating in 96 well plates at 35,000 cells/well. Compounds dissolved in DMSO are then diluted 1:200 into wells containing cells. Five days after compound addition, material is harvested for analysis. For an extended 8 day analysis, cells are plated and treated as described above, but media and compound are refreshed on d2 and d5 post initial treatment.
On harvest day, virion DNA is obtained by lysing with Sidestep Lysis and Stabilization Buffer and then quantified via quantitative real time PCR. Commercially available ELISA kits are used to quantitate the viral proteins HBsAg (Alpco) or HbeAg (US Biological) by following the manufacturer's recommended protocol after diluting samples to match the linear range of their respective assays. Irrespective of readout, compound concentrations that reduce viral product accumulation in the cell lysates or supernatants by relative to no drug controls (EC50) are reported; EC50 ranges are as follows: A<1 μM; B 1-10 μM; C>10 μM.
Background: Quantitative PCR measures a nucleic acid by following its amplification.

Series [2] can be described thus: Compound toxicity by ATPlite 1 Step (total ATP levels) in HepAD38 cells. Type of series: cell-based. Conditions: human, day of harvest, concentration reducing total ATP levels by 50% relative to no drug controls. On the procedure:
as §1
Additionally, on day of harvest, compound toxicity is evaluated by treating cells with ATPlite 1 Step according to the manufacturer's protocol. Compound concentrations that reduce total ATP levels in wells by 50% relative to no drug controls (CC50) are reported; CC50 ranges are as follows: A>30 μM; B 10-30 μM; C<10 μM.

pEC50: −log10 of the molar value. Where two headings read alike, the source gives them in different places.

As usually defined, the pEC50 is −log10 of the EC50, conventionally taken in molar units. The term CC50 denotes the concentration giving 50% cytotoxicity. `C=CC1=C(C)NC(c2nccs2)=NC1c1ccc(F)cc1Cl` (racemic) [Example 12]: the pEC50 in series [1] is greater than 6.00. The same molecule showed a CC50 in series [2] greater than 30 µM. As for `CC1=C(c2ccn(C)n2)C(C)(c2ccc(F)cc2Cl)N=C(c2nccs2)N1` (stereo not shown) [Example 48], the pEC50 in series [1] was less than 5.00.

On to `CN(C)CC1=C(c2ccn(C)n2)C(c2ccc(F)cc2Cl)N=C(c2nccs2)N1` (stereo not shown) [Example 37], for which the pEC50 in series [1] is less than 5.00. For the same molecule, the CC50 in series [2] is 10 to 30 µM. For `CC1=C(c2ccn(C)n2)[C@@H](c2ccc(F)cc2Cl)N=C(c2nccs2)N1` (single isomer, unassigned) [Example 16a], in that order: greater than 6.00 and greater than 30 µM. A word on the EC50: it is the concentration at which the effect is half-maximal. On to `CCOP(=O)(OCC)C1=C(C)NC(c2nccs2)=NC1c1ccc(F)cc1Cl` (racemic) [Example 26], for which the EC50 in series [1] (HePAD38, 120 h, read-out: HepAD38 EC50 (μM)) was greater than 10 µM. In series [2], the CC50 was greater than 30 µM. `CC1=C(c2nccs2)C(c2ccc(F)cc2Cl)N=C(c2nccs2)N1` (racemic) [Example 14]: the pEC50 in series [1] was greater than 6.00. In series [2], this molecule registered a CC50 greater than 30 µM. For `COC(=O)CC1=C(c2ccn(C)n2)C(c2ccc(F)cc2Cl)N=C(c2nccs2)N1` (stereo not shown) [Example 44], in that order: 5.00 to 6.00 and greater than 30 µM.

In the case of `Cn1ccc(C2=C(CN3CC(F)(F)C[C@H]3C(=O)O)NC(c3nccs3)=NC2c2ccc(F)cc2Cl)n1` (stereo partly shown) [Example 38], in series [1], the pEC50 was greater than 6.00. The molecule also came in with a CC50 in series [2] greater than 30 µM.

Turning to `C=CCOC(=O)C1=CNC(c2nccs2)=NC1(C)c1ccc(F)cc1` (stereo not shown) [Example 51], the pEC50 in series [1] was 5.00 to 6.00. On to `CCOC(=O)C1=C(CC2CCC[C@H]2C(=O)O)NC(c2nccs2)=NC1C1CCCCC1` (stereo partly shown) [Example 6], for which the pEC50 in series [1] was less than 5.00. This molecule displayed a half-maximal cytotoxic concentration (CC50) in series [2] greater than 30 µM.

Take `CC1=C(c2ccn(C)n2)[C@H](c2ccc(F)cc2Cl)N=C(c2nccs2)N1` (single isomer, unassigned) [Example 16b]: the pEC50 in series [1] was greater than 6.00. The CC50 in series [2] is greater than 30 µM. With `CCOC(=O)C1=C(CN2CC(F)(F)C[C@H]2C#N)NC(c2nccs2)=NC1c1ccc(F)cc1Cl` (stereo partly shown) [Example 3], the pEC50 in series [1] was greater than 6.00. The molecule also displayed a CC50 in series [2] greater than 30 µM. In the same order, the values of `Cn1ccc(C2=C(CC(=O)O)NC(c3nccs3)=NC2c2ccc(F)cc2Cl)n1` (stereo not shown) [Example 46] are less than 5.00 and 10 to 30 µM. For the molecule `CC1=C(S(C)(=O)=O)C(c2ccc(F)cc2Cl)N=C(c2nccs2)N1` (racemic) [Example 25], the pEC50 in series [1] is less than 5.00. For the same molecule, the CC50 in series [2] was greater than 30 µM. With `CCOC(=O)[C@@H]1CC(F)(F)CC1CC1=C(C#N)C(c2ccc(F)cc2Cl)N=C(c2nccs2)N1` (stereo partly shown) [Example 5], the pEC50 in series [1] was 5.00 to 6.00. The CC50 in series [2] was greater than 30 µM. In the same order, the values of `CNS(=O)(=O)C1=C(C)NC(c2nccs2)=NC1c1ccc(F)cc1Cl` (stereo not shown) [Example 28] are less than 5.00 and greater than 30 µM. In the same order, the values of `COCC1=C(C)NC(c2nccs2)=NC1c1ccc(F)cc1Cl` (racemic) [Example 10] are 5.00 to 6.00 and greater than 30 µM. As for `Cn1ccc(C2=C(CF)NC(c3nccs3)=NC2c2ccc(F)cc2Cl)n1` (stereo not shown) [Example 43], the pEC50 in series [1] is greater than 6.00. The same molecule had a CC50 in series [2] greater than 30 µM.

Consider `CCOC(=O)C1=C(C)NC(C(=O)OC)=NC1c1ccc(F)cc1Cl` (stereo not shown) [Example 31], for which the pEC50 in series [1] is 5.00 to 6.00. The same molecule came in with a CC50 in series [2] greater than 30 µM. As to `Cn1ccc(C2=CNC(c3nccs3)=NC2(C)c2ccc(F)cc2)n1` (stereo not shown) [Example 50], in series [1], the pEC50 is 5.00 to 6.00. Still for that read-out and setting: the figure for `CC1=C(c2ncco2)C(C)(c2ccc(F)cc2Cl)N=C(c2nccs2)N1` (stereo not shown) [Example 47] is less than 5.00. Turning to `Cn1ccc(C2=C(CN=[N+]=[N-])NC(c3nccs3)=NC2c2ccc(F)cc2Cl)n1` (stereo not shown) [Example 42], in series [1], the pEC50 was greater than 6.00. Moreover, the CC50 in series [2] was greater than 30 µM. In the same order, the values of `CC1=C(c2cc(C)no2)C(c2ccc(F)cc2Cl)N=C(c2nccs2)N1` (racemic) [Example 15] are greater than 6.00 and greater than 30 µM.

Regarding `CC1=C(c2ncco2)C(c2ccc(F)cc2Cl)N=C(c2nccs2)N1` (racemic) [Example 13], in series [1], the pEC50 is greater than 6.00. Moreover, in series [2], the CC50 was greater than 30 µM. In the same order, the values of `CCOC(=O)[C@@H]1CC(F)(F)CN1CC1=C(c2ccn(C)n2)C(c2ccc(F)cc2Cl)N=C(c2nccs2)N1` (stereo partly shown) [Example 39] are greater than 6.00 and greater than 30 µM. On to `CCOC(=O)C1=CNC(c2nccs2)=NC1(C)c1ccc(F)cc1Cl` (stereo not shown) [Example 57], for which the pEC50 in series [1] was 5.00 to 6.00. Turning to `Cn1ccc(C2=C(CN3CCOCC3)NC(c3nccs3)=N[C@H]2c2ccc(F)cc2Cl)n1` [Example 53], the pEC50 in series [1] is greater than 6.00. On the same count and under the same terms, under `CCOC(=O)C1=CNC(c2nccs2)=NC1(C)c1ccc(F)cc1` (stereo not shown) [Example 49] stands 5.00 to 6.00. As to `CC1=C(c2ncco2)[C@@H](c2ccc(F)cc2Cl)N=C(c2nccs2)N1` (single isomer, unassigned) [Example 13a], in series [1], the pEC50 is 5.00 to 6.00. Moreover, in series [2], the CC50 is greater than 30 µM. For `CC1=C(CO)C(c2ccc(F)cc2Cl)N=C(c2nccs2)N1` (racemic) [Example 9], in that order: 5.00 to 6.00 and greater than 30 µM. With `CCn1ccc(C2=C(C)NC(c3nccs3)=NC2c2ccc(F)cc2Cl)n1` (stereo not shown) [Example 34], in series [1], the negative logarithm of the EC50 (pEC50) was greater than 6.00. The molecule also returned a CC50 in series [2] greater than 30 µM. For `COC(=O)/C=C1\NC(c2nccs2)=NC(c2ccc(F)cc2Cl)C1c1ccn(C)n1` (stereo not shown) [Example 45], in that order: 5.00 to 6.00 and 10 to 30 µM. For `CC1=C(c2nccn2C)C(c2ccc(F)cc2Cl)N=C(c2nccs2)N1` (stereo not shown) [Example 33], in that order: 5.00 to 6.00 and greater than 30 µM.

In the case of `CC1=C(c2ccccc2)C(c2ccc(F)cc2Cl)N=C(c2nccs2)N1` (racemic) [Example 18], the pEC50 in series [1] was greater than 6.00. In series [2], the CC50 was in the range of 10 to 30 µM. For `CCOC(=O)C1=C(C)NC(N2CCCC2)=NC1c1ccc(F)cc1Cl` (stereo not shown) [Example 30], in that order: less than 5.00 and greater than 30 µM. For `CCOC(=O)C1=C(CN2CCC[C@H]2C(=O)NS(C)(=O)=O)NC(c2nccs2)=NC1c1ccc(F)cc1Cl` (stereo partly shown) [Example 1], in that order: 5.00 to 6.00 and 10 to 30 µM. In the same order, the values of `Cn1ccc(C2=CNC(c3nccs3)=NC2c2ccc(F)cc2Cl)n1` (stereo not shown) [Example 36] are greater than 6.00 and greater than 30 µM. Regarding `CC1=C(C(=O)NS(C)(=O)=O)C(c2ccc(F)cc2Cl)N=C(c2nccs2)N1` (racemic) [Example 21], the pEC50 in series [1] is less than 5.00. This molecule registered a CC50 in series [2] greater than 30 µM. In the same order, the values of `CC1=C(c2ccnn2C)C(c2ccc(F)cc2Cl)N=C(c2nccs2)N1` (racemic) [Example 17] are greater than 6.00 and greater than 30 µM.

With `Cn1ccc(C2=C(CO)NC(c3nccs3)=NC2c2ccc(F)cc2Cl)n1` (stereo not shown) [Example 41], in series [1], the pEC50 was greater than 6.00. The CC50 in series [2] lay within 10 to 30 µM. Turning to `Cn1ccc(C2=C(CN3C4CCC3COC4)NC(c3nccs3)=N[C@H]2c2ccc(F)cc2Cl)n1` [Example 52], the pEC50 in series [1] is greater than 6.00. Consider `Cn1ccc(C2=C(CN3C4CCC3CC(O)C4)NC(c3nccs3)=N[C@H]2c2ccc(F)cc2Cl)n1` (stereo partly shown) [Example 54], for which, in series [1], the pEC50 is 5.00 to 6.00. On the same count and under the same terms, the figure for `COC(=O)[C@@H]1CCC[C@H]1N1C[C@@H]2CN(CC3=C(c4ccn(C)n4)[C@H](c4ccc(F)cc4Cl)N=C(c4nccs4)N3)CCN2C1=O` [Example 55] is 5.00 to 6.00.

The values are drawn from patent US10702528B2, “Hepatitis B antiviral agents” (Enanta Pharmaceuticals, Inc., priority 2015, dated 2020).
